Test results taken from patent US8501770B2 (ArQule, Inc., priority 2009, dated 2013).

Molecular target: Full-length inactive AKT1 (Homo sapiens, UniProt P31749)
Assay: Inactive Akt Alpha Screen Assay
Type: biochemical
Settings: AlphaScreen assay (values not marked with *); read-out: Akt1 IC50, (AlphaScreen) (μM) (or if marked with “*” HTRF assay)
Method: AKT1 activity was assayed using the GSK3-derived biotinylated peptide substrate, crosstide (biotin-[…]), and AlphaScreen™ (Amplified Luminescent Proximity Homogeneous Assay) technology. AKT1 activation was achieved by the addition of the activating kinases PDK1 and MAPKAPK2, lipid vesicles, and ATP. The extent of peptide phosphorylation was determined using a phospho-AKT substrate antibody and acceptor beads conjugated to Protein A and donor beads conjugated to streptavidin that bind to the biotin on the peptide. Excitation of the donor beads converted ambient oxygen to excited singlet oxygen which, when in close proximity to acceptor beads, reacted with acceptor beads resulting in signal amplification.
Assay plates were incubated for 90 minutes at room temperature in the dark, and the plates were read on a Perkin Elmer Envision Multilabel plate reader (excitation wavelength: […], emission wavelength: 570 nm).

Sequence of Full-length inactive AKT1 (P31749 whole entry): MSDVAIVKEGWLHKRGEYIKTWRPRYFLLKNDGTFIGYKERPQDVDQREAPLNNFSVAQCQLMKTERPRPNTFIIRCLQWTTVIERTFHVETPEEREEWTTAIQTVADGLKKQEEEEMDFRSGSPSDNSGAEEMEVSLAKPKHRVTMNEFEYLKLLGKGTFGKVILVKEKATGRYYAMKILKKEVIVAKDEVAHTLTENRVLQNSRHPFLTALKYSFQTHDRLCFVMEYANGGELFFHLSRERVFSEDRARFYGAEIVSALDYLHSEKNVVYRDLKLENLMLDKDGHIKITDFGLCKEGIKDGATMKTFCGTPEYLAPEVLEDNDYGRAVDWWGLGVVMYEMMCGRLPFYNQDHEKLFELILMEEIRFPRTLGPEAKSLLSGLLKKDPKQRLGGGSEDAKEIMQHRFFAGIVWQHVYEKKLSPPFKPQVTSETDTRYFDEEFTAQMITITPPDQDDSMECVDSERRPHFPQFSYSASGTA

Row | SMILES | IC50
1 | Nc1ncccc1-c1nc2ccc(-c3ccc(O)c(F)c3)nc2n1-c1ccc(C2(N)CCC2)cc1 [Example 434, 4-{3-[4-(1-aminocyclobutyl)phenyl]-2-(2-aminopyridin-3-yl)-3H-imidazo[4,5-b]pyridin-5-yl}-2-fluorophenol] | 0.005 µM
2 | COc1cccc(-c2ccc3nc(-c4cccnc4N)n(-c4ccc(C5(N)CCC5)cc4)c3n2)c1C#N [Example 444, 2-{3-[4-(1-aminocyclobutyl)phenyl]-2-(2-aminopyridin-3-yl)-3H-imidazo[4,5-b]pyridin-5-yl}-6-methoxybenzonitrile] | 0.0068 µM

Same assay, conditions: values not marked with "*": AlphaScreen assay; read-out: Akt1 IC50, (AlphaScreen)

Row | SMILES | IC50
3 | COc1ccc(S(=O)(=O)NCc2ccc(-n3c(-c4cccnc4N)nc4cc(Br)cnc43)cc2)cc1OC [Example 148, N-{4-[2-(2-aminopyridin-3-yl)-6-bromo-3H-imidazo[4,5-b]pyridin-3-yl]benzyl}-3,4-dimethoxybenzenesulfonamide] | 0.24 µM
4 | Nc1ncccc1-c1nc2cccnc2n1-c1ccc(CNC(=O)c2ccccn2)cc1 [Example 19] | 0.344 µM
5 | Nc1ccccc1-c1cnc2c(c1)nc(-c1cccnc1N)n2-c1ccc(CNC(=O)c2ccccc2)cc1 [Example 134, N-{4-[6-(2-aminophenyl)-2-(2-aminopyridin-3-yl)-3H-imidazo[4,5-b]pyridin-3-yl]benzyl}benzamide] | 1.6 µM
6 | Nc1ncccc1-c1nc2cc(Br)cnc2n1-c1ccc(CNS(=O)(=O)C2CCCCC2)cc1 [Example 151, N-{4-[2-(2-aminopyridin-3-yl)-6-bromo-3H-imidazo[4,5-b]pyridin-3-yl]benzyl}cyclohexanesulfonamide] | 0.34 µM
7 | Nc1ncccc1-c1nc2cc(Br)cnc2n1-c1ccc(CNS(=O)(=O)c2ccccc2)cc1 [Example 146, N-{4-[2-(2-aminopyridin-3-yl)-6-bromo-3H-imidazo[4,5-b]pyridin-3-yl]benzyl}benzenesulfonamide] | 0.42 µM
8 | Cn1c(NC(=O)Cc2ccc(-n3c(-c4cccnc4N)nc4cccnc43)cc2)nc2ccccc21 [Example 114] | 0.579 µM

Same assay, conditions: values not marked with "*"; read-out: Akt1 IC50, (AlphaScreen)

Row | SMILES | IC50
9 | Cc1ccc2cc(C(=O)NCc3ccc(-n4c(-c5cccnc5N)nc5ccc(C)nc54)cc3)ccc2n1 [Example 263, N-(4-(2-(2-aminopyridin-3-yl)-5-methyl-3H-imidazo[4,5-b]pyridin-3-yl)benzyl)-2-methylquinoline-6-carboxamide] | 0.11 µM
10 | CC(=O)Nc1ccc(NC(=O)Cc2ccc(-n3c(-c4cccnc4N)nc4cc(-c5cccnc5)cnc43)cc2)cc1 [Example 319, N-(4-acetamidophenyl)-2-(4-(2-(2-aminopyridin-3-yl)-6-(pyridin-3-yl)-3H-imidazo[4,5-b]pyridin-3-yl)phenyl)acetamide] | 0.022 µM
11 | CNC(=O)c1cccc(-c2ccc3nc(-c4cccnc4N)n(-c4ccc(C5(N)CCC5)cc4)c3n2)c1 [Example 370, 3-(3-(4-(1-aminocyclobutyl)phenyl)-2-(2-aminopyridin-3-yl)-3H-imidazo[4,5-b]pyridin-5-yl)-N-methylbenzamide] | 0.0046 µM
12 | Cc1ccc(S(=O)(=O)Nc2cccc(-c3ccc4nc(-c5cccnc5N)n(-c5ccc(C6(N)CCC6)cc5)c4n3)c2)cc1 [Example 407, N-(3-{3-[4-(1-aminocyclobutyl)phenyl]-2-(2-aminopyridin-3-yl)-3H-imidazo[4,5-b]pyridin-5-yl}phenyl)-4-methylbenzenesulfonamide] | 0.0028 µM
13 | CN(CCO)C(=O)c1cccc(-c2ccc3nc(-c4cccnc4N)n(-c4ccc(C5(N)CCC5)cc4)c3n2)c1 [Example 386, 3-(3-(4-(1-aminocyclobutyl)phenyl)-2-(2-aminopyridin-3-yl)-3H-imidazo[4,5-b]pyridin-5-yl)-N-(2-hydroxyethyl)-N-methylbenzamide] | 0.0023 µM
14 | Nc1ncccc1-c1nc2cc(Br)cnc2n1-c1ccc(CNS(=O)(=O)C2CC2)cc1 [Example 168, N-{4-[2-(2-aminopyridin-3-yl)-6-bromo-3H-imidazo[4,5-b]pyridin-3-yl]benzyl}cyclopropanesulfonamide] | 0.17 µM
15 | Cc1cnc2c(c1)nc(-c1cccnc1N)n2-c1ccc(CNC(=O)c2cccc(F)c2F)cc1 [Example 265, N-(4-(2-(2-aminopyridin-3-yl)-6-methyl-3H-imidazo[4,5-b]pyridin-3-yl)benzyl)-2,3-difluorobenzamide] | 0.093 µM
16 | Cc1cnc2c(c1)nc(-c1cccnc1N)n2-c1ccc(CNC(=O)c2cccc3ccccc23)cc1 [Example 224, N-(4-(2-(2-aminopyridin-3-yl)-6-methyl-3H-imidazo[4,5-b]pyridin-3-yl)benzyl)-1-naphthamide] | 0.05 µM
17 | Nc1ncccc1-c1nc2cc(Br)cnc2n1-c1ccc(CNS(=O)(=O)c2cccc(F)c2)cc1 [Example 160, N-{4-[2-(2-aminopyridin-3-yl)-6-bromo-3H-imidazo[4,5-b]pyridin-3-yl]benzyl}-3-fluorobenzenesulfonamide] | 0.33 µM
18 | Nc1ncccc1-c1nc2cc(Br)cnc2n1-c1ccc(NC(=O)c2ccccc2)cc1 [Example 304, N-(4-(2-(2-aminopyridin-3-yl)-6-bromo-3H-imidazo[4,5-b]pyridin-3-yl)phenyl)benzamide] | 0.02 µM
19 | NC(=O)c1ccccc1-c1ccc2nc(-c3cccnc3N)n(-c3ccc(C4(N)CCC4)cc3)c2n1 [Example 384, 2-(3-(4-(1-aminocyclobutyl)phenyl)-2-(2-aminopyridin-3-yl)-3H-imidazo[4,5-b]pyridin-5-yl)benzamide] | 0.037 µM
20 | Cc1cnc2c(c1)nc(-c1cccnc1N)n2-c1ccc(CNC(=O)C2CCCC2)cc1 [Example 273, N-(4-(2-(2-aminopyridin-3-yl)-6-methyl-3H-imidazo[4,5-b]pyridin-3-yl)benzyl)cyclopentanecarboxamide] | 0.22 µM
21 | Nc1ncccc1-c1nc2cccnc2n1-c1ccc(C2(N)CCC2)cc1 [Example 415, 3-{3-[4-(1-aminocyclobutyl)phenyl]-3H-imidazo[4,5-b]pyridin-2-yl}pyridin-2-amine] | 0.013 µM
22 | Nc1ncccc1-c1nc2ccc(-c3ccccc3)nc2n1-c1ccc(C2(N)COC2)cc1 [Example 373, 3-(3-(4-(3-aminooxetan-3-yl)phenyl)-5-phenyl-3H-imidazo[4,5-b]pyridin-2-yl)pyridin-2-amine] | 0.0066 µM
23 | Nc1ncccc1-c1nc2ccc(-c3cncnc3)nc2n1-c1ccc(CNC(=O)c2cccc(F)c2)cc1 [Example 337, N-(4-(2-(2-aminopyridin-3-yl)-5-(pyrimidin-5-yl)-3H-imidazo[4,5-b]pyridin-3-yl)benzyl)-3-fluorobenzamide] | 0.082 µM
24 | Nc1ncccc1-c1nc2cc(-c3ccccc3)cnc2n1-c1ccc(C2(C(=O)O)CCC2)cc1 [Example 363, 1-(4-(2-(2-aminopyridin-3-yl)-6-phenyl-3H-imidazo[4,5-b]pyridin-3-yl)phenyl)cyclobutanecarboxylic acid] | 0.25 µM
25 | Nc1ncccc1-c1nc2cc(Br)cnc2n1-c1ccc(CC(=O)Nc2cccc(F)c2)cc1 [Example 299, 2-(4-(2-(2-aminopyridin-3-yl)-6-bromo-3H-imidazo[4,5-b]pyridin-3-yl)phenyl)-N-(3-fluorophenyl)acetamide] | 0.13 µM
26 | Nc1ncccc1-c1nc2cc(Br)cnc2n1-c1ccc(CNS(=O)(=O)c2ccc3c(c2)CCO3)cc1 [Example 161, N-{4-[2-(2-aminopyridin-3-yl)-6-bromo-3H-imidazo[4,5-b]pyridin-3-yl]benzyl}-2,3-dihydro-1-benzofuran-5-sulfonamide] | 0.29 µM
27 | COc1cccc(-c2ccc3nc(-c4cccnc4N)n(-c4ccc(C5(N)CCC5)cc4)c3n2)c1O [Example 430, 2-{3-[4-(1-aminocyclobutyl)phenyl]-2-(2-aminopyridin-3-yl)-3H-imidazo[4,5-b]pyridin-5-yl}-6-methoxyphenol] | 0.0038 µM
28 | CN(C)c1ccc(-c2ccc3nc(-c4cccnc4N)n(-c4ccc(C5(N)CCC5)cc4)c3n2)cc1 [Example 410, 3-{3-[4-(1-aminocyclobutyl)phenyl]-5-[4-(dimethylamino)phenyl]-3H-imidazo[4,5-b]pyridin-2-yl}pyridin-2-amine] | 0.0097 µM
29 | CC(=O)Nc1cccc(-c2ccc3nc(-c4cccnc4N)n(-c4ccc(C5(NC(=O)OC(C)(C)C)CCC5)cc4)c3n2)c1 [Example 340, tert-butyl (1-(4-(5-(3-acetamidophenyl)-2-(2-aminopyridin-3-yl)-3H-imidazo[4,5-b]pyridin-3-yl)phenyl)cyclobutyl)carbamate] | 0.35 µM
30 | CCCOc1cccc(-c2ccc3nc(-c4cccnc4N)n(-c4ccc(C5(N)CCC5)cc4)c3n2)c1 [Example 422, 3-{3-[4-(1-aminocyclobutyl)phenyl]-5-(3-propoxyphenyl)-3H-imidazo[4,5-b]pyridin-2-yl}pyridin-2-amine] | 0.011 µM
31 | COC(=O)C1(c2ccc(-n3c(-c4cccnc4N)nc4cc(-c5ccccc5)cnc43)cc2)CCC1 [Example 361, methyl 1-(4-(2-(2-aminopyridin-3-yl)-6-phenyl-3H-imidazo[4,5-b]pyridin-3-yl)phenyl)cyclobutanecarboxylate] | 0.36 µM
32 | CC(=O)Nc1cccc(-c2ccc3nc(-c4cccnc4N)n(-c4ccc(CNC(=O)c5cccc(F)c5)cc4)c3n2)c1 [Example 204, N-(4-(5-(3-acetamidophenyl)-2-(2-aminopyridin-3-yl)-3H-imidazo[4,5-b]pyridin-3-yl)benzyl)-3-fluorobenzamide] | 0.0073 µM
33 | CN(C)C(=O)c1ccc(-c2ccc3nc(-c4cccnc4N)n(-c4ccc(C5(N)CCC5)cc4)c3n2)cc1 [Example 399, 4-(3-(4-(1-aminocyclobutyl)phenyl)-2-(2-aminopyridin-3-yl)-3H-imidazo[4,5-b]pyridin-5-yl)-N,N-dimethylbenzamide] | 0.021 µM
